Assay type in all cases: functional
The test system of test [1] is Staphylococcus aureus. The test can be described thus: Antibacterial activity against methicillin-resistant Staphylococcus aureus N315 measured by Muller-Hinton broth based microdilution assay.
Test [2] relates to Enterococcus faecalis. The experiment in a line: Antibacterial activity against Enterococcus faecalis measured by Muller-Hinton broth based microdilution assay.
Test [3] concerns Staphylococcus aureus. The test can be described thus: Antibacterial activity against Staphylococcus aureus measured by Muller-Hinton broth based microdilution assay.
The subject of test [4] is Staphylococcus aureus. The test can be described thus: Antibacterial activity against Staphylococcus aureus ATCC 25923 measured by Muller-Hinton broth based microdilution assay.
Test [5] has as its system Staphylococcus aureus. The experiment in a line: Antibacterial activity against Staphylococcus aureus ATCC 29213 measured by Muller-Hinton broth based microdilution assay.
In test [6] the test system is Klebsiella pneumoniae. The test can be described thus: Antibacterial activity against Klebsiella pneumoniae measured by Muller-Hinton broth based microdilution assay.
Test [7] has as its system Escherichia coli. The experiment in a line: Antibacterial activity against Escherichia coli measured by Muller-Hinton broth based microdilution assay.
The test system of test [8] is Pseudomonas aeruginosa. The experiment in a line: Antibacterial activity against Pseudomonas aeruginosa measured by Muller-Hinton broth based microdilution assay.
Test [9] has as its system Acinetobacter baumannii. The test can be described thus: Antibacterial activity against Acinetobacter baumannii measured by Muller-Hinton broth based microdilution assay.
The test system of test [10] is Pseudomonas aeruginosa. The test can be described thus: Antibacterial activity against Pseudomonas aeruginosa ATCC 27853 measured by Muller-Hinton broth based microdilution assay.
In test [11] the test system is Escherichia coli. The experiment in a line: Antibacterial activity against Escherichia coli ATCC 25922 measured by Muller-Hinton broth based microdilution assay.

This passage reports MIC results from ChEMBL document CHEMBL5108027, “An unanticipated discovery of novel naphthalimidopropanediols as potential broad-spectrum antibacterial members” (Eur J Med Chem, 2022).

Values after ≈ are worked out from the molar mass of the structure shown.

With `CCCCCCCCCCCCCCCCn1cc(/C=N/Nc2ccc3c4c(cccc24)C(=O)N(C(CO)CO)C3=O)c2ccccc21`, the MIC is 64 µg/mL (≈ 98 µM) in test [1]; 64 µg/mL (≈ 98 µM) in test [2]; 8 µg/mL (≈ 12.3 µM) in test [3]; 32 µg/mL (≈ 49 µM) in test [4]; 64 µg/mL (≈ 98 µM) in [5]; 32 µg/mL (≈ 49 µM) in test [6]. Moreover, the MIC in [7] amounted to 32 µg/mL (≈ 49 µM); in test [8], 64 µg/mL (≈ 98 µM); in test [9], 64 µg/mL (≈ 98 µM); in [10], 32 µg/mL (≈ 49 µM); in [11] it was 64 µg/mL (≈ 98 µM).
In the case of `O=C(Cn1cc(/C=N/Nc2ccc3c4c(cccc24)C(=O)N(C(CO)CO)C3=O)c2ccccc21)N1CCOCC1`, the MIC in test [1] was 256 µg/mL (≈ 461 µM); in [2], 128 µg/mL (≈ 230 µM); in test [3] it was 128 µg/mL (≈ 230 µM); in test [4], 64 µg/mL (≈ 115 µM); in test [5], 128 µg/mL (≈ 230 µM); in [6] it was 256 µg/mL (≈ 461 µM). Also, the minimum inhibitory concentration (MIC) in test [7] was determined as 256 µg/mL (≈ 461 µM); in test [8], 256 µg/mL (≈ 461 µM); in test [9] it was 128 µg/mL (≈ 230 µM); in [10], 128 µg/mL (≈ 230 µM); in test [11], 256 µg/mL (≈ 461 µM).
For the compound `O=C1c2cccc3c(N/N=C/c4ccccc4Cl)ccc(c23)C(=O)N1C(CO)CO`, the MIC in [1] came to 64 µg/mL (≈ 151 µM); in test [2], 64 µg/mL (≈ 151 µM); in test [3], 64 µg/mL (≈ 151 µM); in test [4] it was 32 µg/mL (≈ 75.5 µM); in test [5], 8 µg/mL (≈ 18.9 µM); in test [6], 16 µg/mL (≈ 37.7 µM). The MIC in test [7] was found to be 128 µg/mL (≈ 302 µM); in test [8], 16 µg/mL (≈ 37.7 µM); in test [9] it was 64 µg/mL (≈ 151 µM); in test [10] it was 32 µg/mL (≈ 75.5 µM); in test [11], 64 µg/mL (≈ 151 µM).
Regarding `O=C1c2cccc3c(N/N=C/c4nccs4)ccc(c23)C(=O)N1C(CO)CO`, the minimal inhibitory concentration (MIC) in test [1] was 32 µg/mL (≈ 80.7 µM); in [2] it was 32 µg/mL (≈ 80.7 µM); in test [3] it was 64 µg/mL (≈ 161 µM); in test [4] it was 16 µg/mL (≈ 40.4 µM); in test [5], 32 µg/mL (≈ 80.7 µM); in [6], 64 µg/mL (≈ 161 µM). The MIC in test [7] is 32 µg/mL (≈ 80.7 µM); in test [8] it was 32 µg/mL (≈ 80.7 µM); in test [9], 32 µg/mL (≈ 80.7 µM); in [10], 16 µg/mL (≈ 40.4 µM); in test [11], 32 µg/mL (≈ 80.7 µM).
`O=C1c2cccc3c(N/N=C/c4ccc(OC(F)(F)F)cc4)ccc(c23)C(=O)N1C(CO)CO`: the minimal inhibitory concentration (MIC) was determined as 32 µg/mL (≈ 67.6 µM) in test [1]; 2 µg/mL (≈ 4.22 µM) in test [2]; 4 µg/mL (≈ 8.45 µM) in test [3]; 32 µg/mL (≈ 67.6 µM) in test [4]; 4 µg/mL (≈ 8.45 µM) in [5]; 2 µg/mL (≈ 4.22 µM) in [6]. For the same compound, the MIC came out at 32 µg/mL (≈ 67.6 µM) in test [7]; 8 µg/mL (≈ 16.9 µM) in [8]; 16 µg/mL (≈ 33.8 µM) in test [9]; 8 µg/mL (≈ 16.9 µM) in test [10]; 32 µg/mL (≈ 67.6 µM) in [11].
In the case of `CCCCCCCCCCCCn1cc(/C=N/Nc2ccc3c4c(cccc24)C(=O)N(C(CO)CO)C3=O)c2ccccc21`, the MIC in test [1] was determined as 64 µg/mL (≈ 107 µM); in [2], 64 µg/mL (≈ 107 µM); in [3], 8 µg/mL (≈ 13.4 µM); in [4] it was 32 µg/mL (≈ 53.6 µM); in test [5] it was 64 µg/mL (≈ 107 µM); in test [6] it was 64 µg/mL (≈ 107 µM). In addition, the MIC in [7] was 32 µg/mL (≈ 53.6 µM); in [8], 128 µg/mL (≈ 214 µM); in test [9], 64 µg/mL (≈ 107 µM); in test [10], 32 µg/mL (≈ 53.6 µM); in test [11] it was 64 µg/mL (≈ 107 µM).
On to `O=C1c2cccc3c(N/N=C/c4cc(Cl)ccc4O)ccc(c23)C(=O)N1C(CO)CO`, for which the MIC turned out to be 1 µg/mL (≈ 2.27 µM) in test [1]; 16 µg/mL (≈ 36.4 µM) in test [2]; 32 µg/mL (≈ 72.8 µM) in test [3]; 2 µg/mL (≈ 4.55 µM) in test [4]; 64 µg/mL (≈ 146 µM) in test [5]; 64 µg/mL (≈ 146 µM) in test [6]. For the same compound, the MIC came out at 64 µg/mL (≈ 146 µM) in test [7]; 2 µg/mL (≈ 4.55 µM) in test [8]; 32 µg/mL (≈ 72.8 µM) in test [9]; 32 µg/mL (≈ 72.8 µM) in test [10]; 32 µg/mL (≈ 72.8 µM) in [11].
As to `O=C1c2cccc(O)c2C(=O)c2c(O)cc(/C=N/Nc3ccc4c5c(cccc35)C(=O)N(C(CO)CO)C4=O)cc21`, the MIC turned out to be 64 µg/mL (≈ 116 µM) in test [1]; 64 µg/mL (≈ 116 µM) in test [2]; 32 µg/mL (≈ 58 µM) in [3]; 64 µg/mL (≈ 116 µM) in test [4]; 128 µg/mL (≈ 232 µM) in test [5]; 32 µg/mL (≈ 58 µM) in test [6]. The MIC in test [7] was found to be 8 µg/mL (≈ 14.5 µM); in test [8], 16 µg/mL (≈ 29 µM); in test [9], 64 µg/mL (≈ 116 µM); in test [10], 64 µg/mL (≈ 116 µM); in [11] it was 32 µg/mL (≈ 58 µM).
Take `C#CCn1cc(/C=N/Nc2ccc3c4c(cccc24)C(=O)N(C(CO)CO)C3=O)c2ccccc21`: the minimal inhibitory concentration (MIC) in test [1] is 8 µg/mL (≈ 17.1 µM); in test [2] it was 16 µg/mL (≈ 34.3 µM); in test [3], 0.5 µg/mL (≈ 1.07 µM); in test [4], 8 µg/mL (≈ 17.1 µM); in [5], 1 µg/mL (≈ 2.14 µM); in test [6], 4 µg/mL (≈ 8.57 µM). Also, the MIC in test [7] came out at 64 µg/mL (≈ 137 µM); in [8], 32 µg/mL (≈ 68.6 µM); in test [9] it was 16 µg/mL (≈ 34.3 µM); in test [10], 4 µg/mL (≈ 8.57 µM); in [11], 16 µg/mL (≈ 34.3 µM).
As to `CN[C@H](CC(C)C)C(=O)N[C@H]1C(=O)N[C@@H](CC(N)=O)C(=O)N[C@H]2C(=O)N[C@H]3C(=O)N[C@H](C(=O)N[C@H](C(=O)O)c4cc(O)cc(O)c4-c4cc3ccc4O)[C@H](O)c3ccc(c(Cl)c3)Oc3cc2cc(c3O[C@@H]2O[C@H](CO)[C@@H](O)[C@H](O)[C@H]2O[C@H]2C[C@](C)(N)[C@H](O)[C@H](C)O2)Oc2ccc(cc2Cl)[C@H]1O` [VANCOMYCIN], the lowest concentration to inhibit growth in test [2] (MIC) was 1 µg/mL (≈ 0.69 µM).
